≈ marks a conversion by molar mass, not a printed value. Where two headings read alike, the source gives them in different places.
Tests used:
E. coli = test: Range of MIC for E. coli strains; details: Escherichia coli
E. faecium GC 4556 = test: MIC, broth microdilution; details: Enterococcus faecium
E. coli GC 2271 = test: MIC, broth microdilution; details: Escherichia coli
Staph. = test: Range of MIC for Staph. strains, including MRSA; details: Staphylococcus aureus
S. pyogenes GC 4563 = test: MIC, broth microdilution; details: Streptococcus pyogenes
Procedure: Antimicrobial susceptibility testing. The in vitro activities of the antibiotics are determined by the broth microdilution method as recommended by the National Committee for Clinical Laboratory Standards (NCCLS) (1). Mueller-Hinton II broth (MHBII)(BBL Cockeysville, Md.) is the medium employed in the testing procedures. Microtiter plates containing serial dilutions of each antimicrobial agent are inoculated with each organism to yield the appropriate density (10^5 CFU/ml) in a 100 μl final volume. The plates are incubated for 18-22 hours at 35° C. in ambient air. […] Standard Pharmacological Test Procedures
Presented in Tables I-XIII are representative compounds of Formula I which were evaluated against a panel of 40 selected gram-positive and gram-negative bacteria strains by pre-incubation in water, mouse serum or human serum. Representative compounds were first incubated in mouse serum for an hour prior to the in vitro testing against a panel of selected gram-positive and gram-negative bacteria strains. All compounds were also pre-incubated in water for an hour prior to testing as control. Representative compounds of Formula I were incubated in human serum prior to MIC determination.

E. coli GC 2236 = test: MIC, broth microdilution; details: Escherichia coli
E. coli GC 1073 = test: MIC, broth microdilution; details: Escherichia coli
S. aureus GC 6335 = test: MIC, broth microdilution; details: Staphylococcus aureus
E. faecalis GC 2265 = test: MIC, broth microdilution; details: Enterococcus faecalis
E. coli GC 2270 = test: MIC, broth microdilution; details: Escherichia coli
E. faecalis GC 4555 = test: MIC, broth microdilution; details: Enterococcus faecalis
S. aureus GC 6469 = test: MIC, broth microdilution; details: Staphylococcus aureus
c. albicans GC 3066 = test: MIC, broth microdilution
E. coli GC 3226 = test: MIC, broth microdilution; details: Escherichia coli
S. aureus GC 1079 = test: MIC, broth microdilution; details: Staphylococcus aureus
E. faecium GC 2243 = test: MIC, broth microdilution; details: Enterococcus faecium
S. typhimurium GC 2172 = test: MIC, broth microdilution; details: Salmonella enterica, TYPHIMURIUM
E. coli GC 2235 = test: MIC, broth microdilution; details: Escherichia coli
E. coli GC 2233 = test: MIC, broth microdilution; details: Escherichia coli
S. agalactiae GC 4564 = test: MIC, broth microdilution; details: Streptococcus agalactiae

## Cc1ccc(C(=O)OCOC(=O)N(CC(=O)Nc2cc(N(C)C)c3c(c2O)C(=O)C2=C(O)[C@]4(O)C(=O)C(C(N)=O)=C(O)[C@@H](N(C)C)[C@@H]4C[C@@H]2C3)C(C)(C)C)cc1 [Example 47]
E. coli; 20 h, read-out: Range of MIC, E. coli (Mouse Serum)
  MIC: 0.5 to 2 µg/mL (≈ 0.643 to 2.57 µM)
E. coli; read-out: Minimum inhibitory concentration (MIC), E. coli (water)
  MIC: > 64 µg/mL
E. coli; read-out: Range of MIC, E. coli (Water)
  MIC: > 64 µg/mL
E. faecium GC 4556; GC4556, read-out: MINIMAL INHIBITORY CONCENTRATION MIC, pre-incubated in Human Serum
  MIC: 4 µg/mL (≈ 5.14 µM)
E. faecium GC 4556; GC4556, read-out: MINIMAL INHIBITORY CONCENTRATION MIC, pre-incubated in Mouse Serum
  MIC: 1 µg/mL (≈ 1.29 µM)
E. faecium GC 4556; GC4556, read-out: MINIMAL INHIBITORY CONCENTRATION MIC, pre-incubated in Water
  MIC: 4 µg/mL (≈ 5.14 µM)
E. coli GC 2271; GC2271, read-out: MINIMAL INHIBITORY CONCENTRATION MIC, pre-incubated in Human Serum
  MIC: 16 µg/mL (≈ 20.6 µM)
E. coli GC 2271; GC2271, read-out: MINIMAL INHIBITORY CONCENTRATION MIC, pre-incubated in Mouse Serum
  MIC: 1 µg/mL (≈ 1.29 µM)
E. coli GC 2271; GC2271, read-out: MINIMAL INHIBITORY CONCENTRATION MIC, pre-incubated in Water
  MIC: > 64 µg/mL
Staph.; MRSA, read-out: Range of MIC, Staph (Mouse Serum)
  MIC: 1 to 2 µg/mL (≈ 1.29 to 2.57 µM)
Staph.; MRSA, read-out: Range of MIC, Staph (Water)
  MIC: 2 to 4 µg/mL (≈ 2.57 to 5.14 µM)
Staph.; read-out: Minimum inhibitory concentration (MIC), Staph (Human Serum)
  MIC: 1 to 4 µg/mL (≈ 1.29 to 5.14 µM)
Staph.; read-out: Minimum inhibitory concentration (MIC), Staph (Water)
  MIC: 2 to 4 µg/mL (≈ 2.57 to 5.14 µM)
S. pyogenes GC 4563; GC4563, read-out: MINIMAL INHIBITORY CONCENTRATION MIC, pre-incubated in Human Serum
  MIC: 0.25 µg/mL (≈ 0.321 µM)
S. pyogenes GC 4563; GC4563, read-out: MINIMAL INHIBITORY CONCENTRATION MIC, pre-incubated in Mouse Serum
  MIC: 0.12 µg/mL (≈ 0.154 µM)
S. pyogenes GC 4563; GC4563, read-out: MINIMAL INHIBITORY CONCENTRATION MIC, pre-incubated in Water
  MIC: 0.25 µg/mL (≈ 0.321 µM)
E. coli GC 2236; GC2236, read-out: MINIMAL INHIBITORY CONCENTRATION MIC, pre-incubated in Human Serum
  MIC: 32 µg/mL (≈ 41.1 µM)
E. coli GC 2236; GC2236, read-out: MINIMAL INHIBITORY CONCENTRATION MIC, pre-incubated in Mouse Serum
  MIC: 1 µg/mL (≈ 1.29 µM)
E. coli GC 2236; GC2236, read-out: MINIMAL INHIBITORY CONCENTRATION MIC, pre-incubated in Water
  MIC: > 64 µg/mL
E. coli GC 1073; GC1073, read-out: MINIMAL INHIBITORY CONCENTRATION MIC, pre-incubated in Human Serum
  MIC: 32 µg/mL (≈ 41.1 µM)
E. coli GC 1073; GC1073, read-out: MINIMAL INHIBITORY CONCENTRATION MIC, pre-incubated in Mouse Serum
  MIC: 2 µg/mL (≈ 2.57 µM)
E. coli GC 1073; GC1073, read-out: MINIMAL INHIBITORY CONCENTRATION MIC, pre-incubated in Water
  MIC: > 64 µg/mL
S. aureus GC 6335; GC6335, read-out: MINIMAL INHIBITORY CONCENTRATION MIC, pre-incubated in Human Serum
  MIC: 2 µg/mL (≈ 2.57 µM)
S. aureus GC 6335; GC6335, read-out: MINIMAL INHIBITORY CONCENTRATION MIC, pre-incubated in Mouse Serum
  MIC: 1 µg/mL (≈ 1.29 µM)
S. aureus GC 6335; GC6335, read-out: MINIMAL INHIBITORY CONCENTRATION MIC, pre-incubated in Water
  MIC: 2 µg/mL (≈ 2.57 µM)
E. faecalis GC 2265; GC2265, read-out: MINIMAL INHIBITORY CONCENTRATION MIC, pre-incubated in Human Serum
  MIC: 4 µg/mL (≈ 5.14 µM)
E. faecalis GC 2265; GC2265, read-out: MINIMAL INHIBITORY CONCENTRATION MIC, pre-incubated in Mouse Serum
  MIC: 1 µg/mL (≈ 1.29 µM)
E. faecalis GC 2265; GC2265, read-out: MINIMAL INHIBITORY CONCENTRATION MIC, pre-incubated in Water
  MIC: 4 µg/mL (≈ 5.14 µM)
E. coli GC 2270; GC2270, read-out: MINIMAL INHIBITORY CONCENTRATION MIC, pre-incubated in Human Serum
  MIC: 16 µg/mL (≈ 20.6 µM)
E. coli GC 2270; GC2270, read-out: MINIMAL INHIBITORY CONCENTRATION MIC, pre-incubated in Mouse Serum
  MIC: 0.5 µg/mL (≈ 0.643 µM)
E. coli GC 2270; GC2270, read-out: MINIMAL INHIBITORY CONCENTRATION MIC, pre-incubated in Water
  MIC: > 64 µg/mL
E. faecalis GC 4555; GC4555, read-out: MINIMAL INHIBITORY CONCENTRATION MIC, pre-incubated in Human Serum
  MIC: 4 µg/mL (≈ 5.14 µM)
E. faecalis GC 4555; GC4555, read-out: MINIMAL INHIBITORY CONCENTRATION MIC, pre-incubated in Mouse Serum
  MIC: 1 µg/mL (≈ 1.29 µM)
E. faecalis GC 4555; GC4555, read-out: MINIMAL INHIBITORY CONCENTRATION MIC, pre-incubated in Water
  MIC: 4 µg/mL (≈ 5.14 µM)
S. aureus GC 6469; GC6469, read-out: MINIMAL INHIBITORY CONCENTRATION MIC, pre-incubated in Human Serum
  MIC: 2 µg/mL (≈ 2.57 µM)
S. aureus GC 6469; GC6469, read-out: MINIMAL INHIBITORY CONCENTRATION MIC, pre-incubated in Mouse Serum
  MIC: 1 µg/mL (≈ 1.29 µM)
S. aureus GC 6469; GC6469, read-out: MINIMAL INHIBITORY CONCENTRATION MIC, pre-incubated in Water
  MIC: 4 µg/mL (≈ 5.14 µM)
c. albicans GC 3066; Candida albicans, GC3066, read-out: MINIMAL INHIBITORY CONCENTRATION MIC
  MIC: > 64 µg/mL
c. albicans GC 3066; pre-incubated in Human Serum
  MINIMAL INHIBITORY CONCENTRATION MIC: >64 UG/ML
c. albicans GC 3066; pre-incubated in Mouse Serum
  MINIMAL INHIBITORY CONCENTRATION MIC: >64 UG/ML
E. coli GC 3226; GC3226, read-out: MINIMAL INHIBITORY CONCENTRATION MIC, pre-incubated in Human Serum
  MIC: 32 µg/mL (≈ 41.1 µM)
E. coli GC 3226; GC3226, read-out: MINIMAL INHIBITORY CONCENTRATION MIC, pre-incubated in Mouse Serum
  MIC: 2 µg/mL (≈ 2.57 µM)
E. coli GC 3226; GC3226, read-out: MINIMAL INHIBITORY CONCENTRATION MIC, pre-incubated in Water
  MIC: > 64 µg/mL
S. aureus GC 1079; GC1079, read-out: MINIMAL INHIBITORY CONCENTRATION MIC, pre-incubated in Human Serum
  MIC: 2 µg/mL (≈ 2.57 µM)
S. aureus GC 1079; GC1079, read-out: MINIMAL INHIBITORY CONCENTRATION MIC, pre-incubated in Mouse Serum
  MIC: 1 µg/mL (≈ 1.29 µM)
S. aureus GC 1079; GC1079, read-out: MINIMAL INHIBITORY CONCENTRATION MIC, pre-incubated in Water
  MIC: 2 µg/mL (≈ 2.57 µM)
E. faecium GC 2243; GC2243, read-out: MINIMAL INHIBITORY CONCENTRATION MIC, pre-incubated in Human Serum
  MIC: 2 µg/mL (≈ 2.57 µM)
E. faecium GC 2243; GC2243, read-out: MINIMAL INHIBITORY CONCENTRATION MIC, pre-incubated in Mouse Serum
  MIC: 0.5 µg/mL (≈ 0.643 µM)
E. faecium GC 2243; GC2243, read-out: MINIMAL INHIBITORY CONCENTRATION MIC, pre-incubated in Water
  MIC: 2 µg/mL (≈ 2.57 µM)
S. typhimurium GC 2172; read-out: MINIMAL INHIBITORY CONCENTRATION MIC, pre-incubated in Human Serum
  MIC: > 64 µg/mL
S. typhimurium GC 2172; read-out: MINIMAL INHIBITORY CONCENTRATION MIC, pre-incubated in Mouse Serum
  MIC: 4 µg/mL (≈ 5.14 µM)
S. typhimurium GC 2172; read-out: MINIMAL INHIBITORY CONCENTRATION MIC, pre-incubated in Water
  MIC: > 64 µg/mL
E. coli GC 2235; GC2235, read-out: MINIMAL INHIBITORY CONCENTRATION MIC, pre-incubated in Human Serum
  MIC: 16 µg/mL (≈ 20.6 µM)
E. coli GC 2235; GC2235, read-out: MINIMAL INHIBITORY CONCENTRATION MIC, pre-incubated in Mouse Serum
  MIC: 1 µg/mL (≈ 1.29 µM)
E. coli GC 2235; GC2235, read-out: MINIMAL INHIBITORY CONCENTRATION MIC, pre-incubated in Water
  MIC: > 64 µg/mL
E. coli GC 2233; GC2233, read-out: MINIMAL INHIBITORY CONCENTRATION MIC, pre-incubated in Human Serum
  MIC: 16 µg/mL (≈ 20.6 µM)
E. coli GC 2233; GC2233, read-out: MINIMAL INHIBITORY CONCENTRATION MIC, pre-incubated in Mouse Serum
  MIC: 0.5 µg/mL (≈ 0.643 µM)
E. coli GC 2233; GC2233, read-out: MINIMAL INHIBITORY CONCENTRATION MIC, pre-incubated in Water
  MIC: > 64 µg/mL
S. agalactiae GC 4564; GC4564, read-out: MINIMAL INHIBITORY CONCENTRATION MIC, pre-incubated in Human Serum
  MIC: 1 µg/mL (≈ 1.29 µM)
S. agalactiae GC 4564; GC4564, read-out: MINIMAL INHIBITORY CONCENTRATION MIC, pre-incubated in Mouse Serum
  MIC: 0.5 µg/mL (≈ 0.643 µM)
S. agalactiae GC 4564; GC4564, read-out: MINIMAL INHIBITORY CONCENTRATION MIC, pre-incubated in Water
  MIC: 1 µg/mL (≈ 1.29 µM)

— patent publication US20070049564A1 (Wyeth, priority 2005, published 2007)
